Reference: ChEMBL document CHEMBL1201862, “PubChem BioAssay data set” (2004)
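Step 1: Grow cells in 96-well plates. Step 2: Expose to compound for 48 hours at 5 concentrations. Step 3: Interpolate endpoints linearly; if unreached, use highest concentration. GI50 = concentration required for 50% inhibition of growth.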 Activity calls are given as the source filed them. Cut-off read from the data, not from the text of the source: active = GI50 up to about 1.1 µM and inactive = higher.

Legend:
Assay in all cases: growth of human tumour cells (NCI), 48 h
SK-MEL-5 = system: SK-MEL-5
UO-31 = system: UO-31
HT-29 = system: HT-29
OVCAR-3 = system: OVCAR-3
OVCAR-4 = system: OVCAR-4
M19-MEL = system: M19-MEL
A549 = system: A549
A498 = system: A498
IGROV-1 = system: IGROV-1
NCI-H460 = system: NCI-H460
XF498 = system: XF498
DMS-273 = system: DMS-273
SW-620 = system: SW-620
KM-20L2 = system: KM-20L2
SNB-75 = system: SNB-75
SK-OV-3 = system: SK-OV-3
SK-MEL-2 = system: SK-MEL-2
SF-539 = system: SF-539
DMS-114 = system: DMS-114
RXF 393 = system: RXF 393
U-251 = system: U-251
HL-60 = system: HL-60
SNB-19 = system: SNB-19
NCI-H522 = system: NCI-H522
EKVX = system: EKVX
LXFL 529 = system: LXFL 529
CCRF-CEM = system: CCRF-CEM
TK-10 = system: TK-10
NCI-H23 = system: NCI-H23
SF-295 = system: SF-295
UACC-62 = system: UACC-62
K562 = system: K562
MOLT-4 = system: MOLT-4
OVCAR-8 = system: OVCAR-8
HOP-62 = system: HOP-62
SK-MEL-28 = system: SK-MEL-28
DLD-1 = system: DLD-1
HCC 2998 = system: HCC 2998
M14 = system: M14
SF-268 = system: SF-268
NCI-H226 = system: NCI-H226
SNB-78 = system: SNB-78
KM12 = system: KM12
HCT-116 = system: HCT-116
SR = system: SR
CAKI-1 = system: CAKI-1
Malme-3M = system: Malme-3M
ACHN = system: ACHN
UACC-257 = system: UACC-257
786-0 = system: 786-0
OVCAR-5 = system: OVCAR-5
SN12C = system: SN12C
HOP-18 = system: HOP-18
HCT-15 = system: HCT-15
LOX IMVI = system: LOX IMVI
RPMI-8226 = system: RPMI-8226
NCI/ADR-RES = system: NCI/ADR-RES
HOP-92 = system: HOP-92
COLO 205 = system: COLO 205
MCF7 = system: MCF7

In the case of `Oc1c(-c2ccccc2)nc2ccccn12`, the GI50 (SK-MEL-5) is reported as > 100 µM (inactive), the GI50 (UO-31) is reported as > 100 µM (inactive) and the GI50 (HT-29) is reported as > 100 µM (inactive). The GI50 (OVCAR-3) was > 100 µM (inactive), the GI50 (OVCAR-4) was > 100 µM (inactive) and the GI50 (M19-MEL) was > 100 µM (inactive). For the same compound, the GI50 (A549) was > 100 µM (inactive), the GI50 (A498) was > 100 µM (inactive) and the GI50 (IGROV-1) was > 100 µM (inactive). The GI50 (NCI-H460) was > 100 µM (inactive), the GI50 (XF498) was > 100 µM (inactive) and the GI50 (DMS-273) was > 100 µM (inactive). The GI50 (SW-620) was > 100 µM (inactive), the GI50 (KM-20L2) was > 100 µM (inactive) and the GI50 (SNB-75) was > 100 µM (inactive). For the same compound, the GI50 (SK-OV-3) was > 100 µM (inactive), the GI50 (SK-MEL-2) was > 100 µM (inactive) and the GI50 (SF-539) was > 100 µM (inactive). The GI50 (DMS-114) was > 100 µM (inactive), the GI50 (RXF 393) was > 100 µM (inactive) and the GI50 (U-251) was > 100 µM (inactive). The GI50 (HL-60) was > 100 µM (inactive), the GI50 (SNB-19) was > 100 µM (inactive) and the GI50 (NCI-H522) was > 100 µM (inactive). The GI50 (EKVX) was > 100 µM (inactive), the GI50 (LXFL 529) was > 100 µM (inactive) and the GI50 (CCRF-CEM) was > 100 µM (inactive). The GI50 (TK-10) was > 100 µM (inactive), the GI50 (NCI-H23) was > 100 µM (inactive) and the GI50 (SF-295) was > 100 µM (inactive). The GI50 (UACC-62) was > 100 µM (inactive), the GI50 (K562) was > 100 µM (inactive) and the GI50 (MOLT-4) was > 100 µM (inactive). For the same compound, the GI50 (OVCAR-8) was > 100 µM (inactive), the GI50 (HOP-62) was > 100 µM (inactive) and the GI50 (SK-MEL-28) was > 100 µM (inactive). The GI50 (DLD-1) was > 100 µM (inactive), the GI50 (HCC 2998) was > 100 µM (inactive) and the GI50 (M14) was > 100 µM (inactive). The GI50 (SF-268) was > 100 µM (inactive), the GI50 (NCI-H226) was > 100 µM (inactive) and the GI50 (SNB-78) was > 100 µM (inactive). For the same compound, the GI50 (KM12) was > 100 µM (inactive), the GI50 (HCT-116) was > 100 µM (inactive) and the GI50 (SR) was > 100 µM (inactive). The GI50 (CAKI-1) was > 100 µM (inactive), the GI50 (Malme-3M) was > 100 µM (inactive) and the GI50 (ACHN) was > 100 µM (inactive). For the same compound, the GI50 (UACC-257) was > 100 µM (inactive), the GI50 (786-0) was > 100 µM (inactive) and the GI50 (OVCAR-5) was > 100 µM (inactive). For the same compound, the GI50 (SN12C) was > 100 µM (inactive).

For `CCCCN(C)/N=N/c1[nH]cnc1C(N)=O`, the GI50 (HOP-18) was > 100 µM (inactive), the GI50 (SK-MEL-5) was > 100 µM (inactive) and the GI50 (HCT-15) was > 100 µM. For the same compound, the GI50 (LOX IMVI) was 36.7 µM (inactive), the GI50 (UO-31) was > 100 µM (inactive) and the GI50 (HT-29) was > 100 µM (inactive). The GI50 (OVCAR-3) was 99.5 µM (inactive), the GI50 (OVCAR-4) was 68.9 µM (inactive) and the GI50 (M19-MEL) was > 100 µM (inactive). The GI50 (RPMI-8226) was > 100 µM (inactive), the GI50 (A549) was > 100 µM (inactive) and the GI50 (A498) was > 71.1 µM (inactive). For the same compound, the GI50 (IGROV-1) was > 77.8 µM (inactive), the GI50 (NCI-H460) was > 100 µM (inactive) and the GI50 (XF498) was 32.4 µM (inactive). For the same compound, the GI50 (DMS-273) was 58.7 µM (inactive), the GI50 (SW-620) was > 100 µM (inactive) and the GI50 (KM-20L2) was > 50.2 µM (inactive). The GI50 (SNB-75) was > 100 µM (inactive), the GI50 (NCI/ADR-RES) was > 100 µM (inactive) and the GI50 (SK-OV-3) was 35.8 µM (inactive). The GI50 (SK-MEL-2) was 44.6 µM (inactive), the GI50 (SF-539) was > 100 µM (inactive) and the GI50 (DMS-114) was > 100 µM (inactive). For the same compound, the GI50 (RXF 393) was > 66.7 µM (inactive), the GI50 (U-251) was > 100 µM (inactive) and the GI50 (HL-60) was 60.7 µM (inactive). For the same compound, the GI50 (SNB-19) was > 100 µM (inactive), the GI50 (NCI-H522) was > 100 µM (inactive) and the GI50 (EKVX) was > 100 µM (inactive). For the same compound, the GI50 (HOP-92) was 47.6 µM (inactive), the GI50 (CCRF-CEM) was 52.4 µM (inactive) and the GI50 (COLO 205) was > 100 µM (inactive). The GI50 (NCI-H23) was > 100 µM (inactive), the GI50 (SF-295) was > 94.2 µM (inactive) and the GI50 (UACC-62) was 57.1 µM (inactive). For the same compound, the GI50 (K562) was > 80.7 µM (inactive), the GI50 (MOLT-4) was 41.2 µM (inactive) and the GI50 (OVCAR-8) was 78.2 µM (inactive). The GI50 (SK-MEL-28) was > 100 µM (inactive), the GI50 (DLD-1) was > 100 µM (inactive) and the GI50 (MCF7) was > 100 µM (inactive). The GI50 (HCC 2998) was > 94.4 µM (inactive), the GI50 (SF-268) was > 100 µM (inactive) and the GI50 (NCI-H226) was > 100 µM (inactive). For the same compound, the GI50 (SNB-78) was > 100 µM (inactive), the GI50 (KM12) was > 100 µM (inactive) and the GI50 (HCT-116) was > 100 µM (inactive). For the same compound, the GI50 (CAKI-1) was 20.3 µM (inactive), the GI50 (Malme-3M) was > 86.9 µM (inactive) and the GI50 (UACC-257) was > 73.5 µM (inactive). The GI50 (OVCAR-5) was > 85.1 µM (inactive) and the GI50 (SN12C) was > 100 µM (inactive).

`Cc1ccc(C(=O)N2c3ccccc3N(C)n3cccc3C2CC(=O)O)cc1` (stereo not drawn) was tested, and the GI50 (SK-MEL-5) was > 100 µM (inactive), the GI50 (HCT-15) was > 100 µM and the GI50 (LOX IMVI) was > 100 µM (inactive). The GI50 (UO-31) was > 100 µM (inactive), the GI50 (HT-29) was > 100 µM (inactive) and the GI50 (OVCAR-3) was > 100 µM (inactive). For the same compound, the GI50 (OVCAR-4) was > 100 µM (inactive), the GI50 (M19-MEL) was > 100 µM (inactive) and the GI50 (RPMI-8226) was > 100 µM (inactive). For the same compound, the GI50 (A549) was > 100 µM (inactive), the GI50 (A498) was > 100 µM (inactive) and the GI50 (IGROV-1) was > 100 µM (inactive). For the same compound, the GI50 (NCI-H460) was > 100 µM (inactive), the GI50 (XF498) was > 100 µM (inactive) and the GI50 (DMS-273) was > 100 µM (inactive). The GI50 (SW-620) was > 100 µM (inactive), the GI50 (KM-20L2) was > 100 µM (inactive) and the GI50 (SNB-75) was > 100 µM (inactive). The GI50 (SK-MEL-2) was > 100 µM (inactive), the GI50 (SF-539) was > 100 µM (inactive) and the GI50 (DMS-114) was > 100 µM (inactive). The GI50 (RXF 393) was > 100 µM (inactive), the GI50 (HL-60) was > 100 µM (inactive) and the GI50 (SNB-19) was > 100 µM (inactive). For the same compound, the GI50 (NCI-H522) was > 100 µM (inactive), the GI50 (EKVX) was > 100 µM (inactive) and the GI50 (HOP-92) was > 100 µM (inactive). For the same compound, the GI50 (LXFL 529) was > 100 µM (inactive), the GI50 (CCRF-CEM) was > 100 µM (inactive) and the GI50 (COLO 205) was > 100 µM (inactive). For the same compound, the GI50 (TK-10) was > 100 µM (inactive), the GI50 (NCI-H23) was > 100 µM (inactive) and the GI50 (SF-295) was > 100 µM (inactive). For the same compound, the GI50 (UACC-62) was > 100 µM (inactive), the GI50 (K562) was > 100 µM (inactive) and the GI50 (MOLT-4) was > 100 µM (inactive). The GI50 (OVCAR-8) was > 100 µM (inactive), the GI50 (HOP-62) was > 100 µM (inactive) and the GI50 (SK-MEL-28) was > 100 µM (inactive). For the same compound, the GI50 (DLD-1) was > 100 µM (inactive), the GI50 (HCC 2998) was > 100 µM (inactive) and the GI50 (M14) was > 100 µM (inactive). For the same compound, the GI50 (SF-268) was > 100 µM (inactive), the GI50 (NCI-H226) was > 100 µM (inactive) and the GI50 (SNB-78) was > 100 µM (inactive). The GI50 (KM12) was > 100 µM (inactive), the GI50 (CAKI-1) was > 100 µM (inactive) and the GI50 (Malme-3M) was > 100 µM (inactive). For the same compound, the GI50 (ACHN) was > 100 µM (inactive), the GI50 (UACC-257) was > 100 µM (inactive) and the GI50 (786-0) was > 100 µM (inactive). The GI50 (OVCAR-5) was > 100 µM (inactive) and the GI50 (SN12C) was > 100 µM (inactive).
